The target in assay [1] is T1, human cytoplasmic domain of IGF-1R (Homo sapiens, UniProt P08069).
T1 construct: The human cytoplasmic domain of IGF-1R was cloned by fusion with glutathione S-transferase (GST); made in house; host or cells: SF21 insect cells (baculovirus, pFastBac-GST)
Kind of assay: Kinase IGF-1R test: inhibition of autophosphorylation of the enzyme (HTRF). The class given is biochemical. The settings on record: ATP 120 μM. The protocol: A) Experimental Protocol for the Kinase IGF-1R Test:
The inhibitory activity of the compounds on IGF1R is determined by measuring the inhibition of autophosphorylation of the enzyme using a time-resolved fluorescence test (HTRF). The human cytoplasmic domain of IGF-1R was cloned by fusion with glutathione S-transferase (GST) in the baculovirus expression vector pFastBac-GST. The protein is expressed in the SF21 cells and purified to about 80% homogeneity. For the enzymatic test, the test compound at 10 mM dissolved in DMSO is diluted in ⅓ steps in a 50 mM Hepes, pH 7.5, 5 mM MnCl2, 50 mM NaCl, 3% Glycerol, 0.025% Tween 20 buffer. To measure the inhibition, the successive dilutions of the compound are preincubated for 30 minutes and 90 minutes in the presence of 5 nM of enzyme, the final DMSO concentration not exceeding 1%. The enzymatic reaction is initiated to have a final ATP concentration of 120 μM, and is stopped after 5 minutes by addition of 100 mM Hepes, pH 7.0 buffer containing 0.4 M of potassium fluoride, 133 mM EDTA, 0.1% BSA, the XL665-labelled antibody anti-GST and the anti-phosphotyrosine antibody conjugated to europium cryptate Eu—K (Cis-Bio Int.). The characteristics of the two fluorophores, XL-665 and Eu—K, are available in G. Mathis et al., Anticancer Research, 1997, 17, pages 3011-3014. The energy transfer between the excited europium cryptate to the acceptor XL665 is proportional to the degree of autophosphorylation of IGF-1R. The specific long-lasting signal of XL-665 is measured in a GENios Pro TECAN plate counter. The inhibition of autophosphorylation of IGF-1R at time 30 minutes and 90 minutes with the test compounds of the invention is calculated relative to a 1% in DMSO control, whose activity is measured in the absence of compound. The curve representing the percentage of inhibition as a function of the log of the concentration is established to determine the concentration corresponding to 50% inhibition (IC50),

The target in a further assay is IGF-1R in MCF7 cells (Homo sapiens, UniProt P08069). Kind of assay: Autophosphorylation of IGF-1R in MCF7 cells after stimulation with IGF-1 (ELISA). Details: endogenous in cells; host or cells: MCF-7 cells. Format: cell-based. The settings on record: MCF-7 cells, compound added one hour before stimulation with IGF1; read-out: Test B IC50. The protocol: B) Measurement of the Autophosphorylation of IGF-1R in MCF7 Cells after Stimulation with IGF-1
Chain of IGF-1R in MCF7 cells (P08069 31-1367): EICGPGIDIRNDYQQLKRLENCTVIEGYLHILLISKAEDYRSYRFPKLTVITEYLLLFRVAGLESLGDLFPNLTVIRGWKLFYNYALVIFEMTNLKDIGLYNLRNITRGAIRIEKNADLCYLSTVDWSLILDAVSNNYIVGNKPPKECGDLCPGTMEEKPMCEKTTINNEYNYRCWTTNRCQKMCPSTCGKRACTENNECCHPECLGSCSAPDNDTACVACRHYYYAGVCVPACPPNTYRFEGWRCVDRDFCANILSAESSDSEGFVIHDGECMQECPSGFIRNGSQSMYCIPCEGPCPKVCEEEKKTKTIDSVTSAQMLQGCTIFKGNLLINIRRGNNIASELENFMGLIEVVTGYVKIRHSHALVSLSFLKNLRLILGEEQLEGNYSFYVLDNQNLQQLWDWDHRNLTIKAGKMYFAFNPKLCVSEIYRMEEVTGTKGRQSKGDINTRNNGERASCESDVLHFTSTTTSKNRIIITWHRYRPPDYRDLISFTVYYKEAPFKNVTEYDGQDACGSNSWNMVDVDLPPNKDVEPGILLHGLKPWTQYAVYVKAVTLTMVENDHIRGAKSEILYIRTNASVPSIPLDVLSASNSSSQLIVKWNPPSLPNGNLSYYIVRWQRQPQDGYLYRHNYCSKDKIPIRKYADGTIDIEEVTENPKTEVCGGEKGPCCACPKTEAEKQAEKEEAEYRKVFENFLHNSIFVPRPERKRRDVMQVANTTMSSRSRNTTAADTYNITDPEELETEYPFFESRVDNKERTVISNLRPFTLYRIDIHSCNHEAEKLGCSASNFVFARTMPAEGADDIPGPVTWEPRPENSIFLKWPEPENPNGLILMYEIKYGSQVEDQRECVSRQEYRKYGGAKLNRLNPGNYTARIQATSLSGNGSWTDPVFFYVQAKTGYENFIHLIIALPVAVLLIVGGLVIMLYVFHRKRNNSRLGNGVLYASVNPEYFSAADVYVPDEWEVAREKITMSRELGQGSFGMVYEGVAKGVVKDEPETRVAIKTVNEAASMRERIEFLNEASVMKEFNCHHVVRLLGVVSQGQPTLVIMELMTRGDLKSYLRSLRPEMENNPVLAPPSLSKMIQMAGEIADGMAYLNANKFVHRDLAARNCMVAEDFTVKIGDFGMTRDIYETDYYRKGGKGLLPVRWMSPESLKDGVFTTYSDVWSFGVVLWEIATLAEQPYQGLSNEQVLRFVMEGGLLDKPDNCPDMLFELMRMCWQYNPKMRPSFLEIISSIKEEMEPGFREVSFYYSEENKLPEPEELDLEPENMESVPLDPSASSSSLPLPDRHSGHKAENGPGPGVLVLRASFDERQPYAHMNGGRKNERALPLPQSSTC
Cell Culturing and Execution of the Test:
The autophosphorylation of IGF1R in the IGF1-induced cells is evaluated by means of an ELISA technique (Enzyme Linked ImmunoSorbent Assay). The MCF-7 are seeded at 60 000 cells per well in 6-well plates and incubated at 37° C., 5% CO2 in medium containing 10% serum. After one night in 10% serum, the cells are deprived of serum for 24 hours. The compounds are added to the medium one hour before stimulation with IGF1. After 10 minutes of stimulation with IGF1, the cells are lysed with a buffer (Hepes 50 mM pH 7.6, Triton X100 1%, orthovanadate 2 mM, protease inhibitor cocktail). The cell lysates are incubated on a 96-well plate precoated with an anti-IGF1R antibody, followed by incubation with an anti-phosphotyrosine antibody coupled to the enzyme peroxidase. The level of peroxidase activity (measured by OD with a luminescent substrate) reflects the phosphorylation status of the receptor.
(§1) (i) The tests are performed in duplicate and the mean of the two tests is calculated.
(§2) (ii) The value of the signal of the maximum response is calculated from the positive control: cells stimulated with IGF1 without compound.
(§3) (iii) Value of the signal of the minimum response is calculated from the negative control: cells not stimulated with IGF1 without compound.
(§4) (iv) By using these values as maximum (100%) and minimum (0%), respectively, the data were normalized so as to give a percentage of the maximum response.
(§5) (v) A curve of dose response is plotted and the IC50 (the concentration of which the compound induces a 50% decrease in the signal) of the compound is calculated by non-linear regression analysis.

Another assay has as its system MEF-IGF1R cells. Kind of assay: Proliferation/viability of MEF-IGF1R (Thymidine [14C] incorporation). Format: cell-based. The settings on record: rhIGF1 100 ng/mL, incubation 72 hours, read-out: Test C IC50. The protocol: C) Measurement of the Proliferation/Viability of MEF-IGF1R
Cell culture: the MEF-IGF1R cells (stable clone of cells transfected with the receptor hIGF-1R) are cultured at 37° C. under 5% CO2 in EMEM medium containing 10% FCS.
Test procedure: the cells are seeded at 5000 cells per well in 96-well Cytostar plates (Amersham) with 0.2 mL of EMEM culture medium at 37° C. for 18 hours. The cells are then washed twice with EMEM medium and left to culture without serum for 24 hours. The compounds are then added at various concentrations in the presence of rhIGF1 (100 ng/mL) and 0.1 μCi of Thymidine [^14C] (specific activity ˜50 mCi/mmol) to give 0.2 mL of volume per well. After incubation for 72 hours in the presence of the compound, at 37° C. under 5% CO2, the incorporation of Thymidine [^14C] is measured by counting the radioactivity on a Microbeta trilux counter (Perkin-Elmer). The IC50 is determined from 10 increasing concentrations of the compound.
as §1, §2, §3, §4, §5

[2] abbreviates: preincubation 30 minutes with 5 nM enzyme, read-out: Test A 30′ IC50.
Where [3] appears, read: preincubation 90 minutes with 5 nM enzyme, read-out: Test A 90′ IC50.

One may read the IC50 as the concentration at which inhibition is half-maximal.

Like-named read-outs stand apart in the source and are kept apart here. A value given as a limit tells only on which side of the number the result lay.

T1 sequence (P08069 960-1367 limits assumed): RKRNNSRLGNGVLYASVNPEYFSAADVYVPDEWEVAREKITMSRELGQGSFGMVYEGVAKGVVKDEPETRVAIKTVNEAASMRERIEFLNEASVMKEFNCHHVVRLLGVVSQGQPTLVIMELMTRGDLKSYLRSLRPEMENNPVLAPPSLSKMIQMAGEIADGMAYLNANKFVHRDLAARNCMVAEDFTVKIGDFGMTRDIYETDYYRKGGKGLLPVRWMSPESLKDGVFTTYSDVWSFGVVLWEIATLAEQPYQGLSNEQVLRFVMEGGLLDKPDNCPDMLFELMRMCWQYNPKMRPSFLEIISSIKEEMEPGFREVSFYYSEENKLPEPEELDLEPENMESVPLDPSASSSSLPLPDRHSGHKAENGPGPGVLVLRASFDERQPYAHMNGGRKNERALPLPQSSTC

Consider `CC1(C)C(=O)N(c2ccc(SC(F)(F)F)cc2)C(=O)N1Cc1ccnc(Nc2cccnc2)n1` [Example 11, 5,5-dimethyl-1-{[2-(pyridin-3-ylamino)pyrimidin-4-yl]methyl}-3-{4-[(trifluoromethyl)thio]phenyl}imidazolidine-2,4-dione], for which the IC50 in assay [1] (setting [2]) is 10 to 100 nM; in assay [1] (setting [3]) it was less than 10 nM; on IGF-1R in MCF7 cells it was less than 10 nM; in the assay on MEF-IGF1R cells, less than 10 nM.

For `CNC(=O)Nc1cc(CN2C(=O)N(c3ccc(S(=O)(=O)C(F)(F)F)cc3)C(=O)C2(C)C)ccn1` [Example 4, 1-{4-[(5,5-dimethyl-2,4-dioxo-3-{4-[(trifluoro-methyl)sulfonyl]phenyl}imidazolidin-1-yl)methyl]pyridin-2-yl}-3-methylurea], the IC50 in assay [1] (setting [2]) was more than 100 nM; in assay [1] (setting [3]) it was 10 to 100 nM; on IGF-1R in MCF7 cells, less than 10 nM; in the assay on MEF-IGF1R cells, 10 to 100 nM.

Regarding `CN(C)CCCNC(=O)Nc1cc(CN2C(=O)N(c3ccc(SC(F)(F)F)cc3)C(=O)C2(C)C)ccn1` [Example 39, 1-[3-(dimethylamino)propyl]-3-{4-[(5,5-dimethyl-2,4-dioxo-3-{4-[(trifluoromethyl)thio]phenyl}imidazolidin-1-yl)methyl]pyridin-2-yl}urea], the IC50 in assay [1] (setting [2]) was 10 to 100 nM; in assay [1] (setting [3]) it was 10 to 100 nM; at IGF-1R in MCF7 cells, more than 100 nM; in the assay on MEF-IGF1R cells it was more than 100 nM.

Turning to `CC1(C)C(=O)N(c2ccc(SC(F)(F)F)cc2)C(=O)N1Cc1ccnc(NC(=O)NC2CCCC2)c1` [Example 19, 1-cyclopentyl-3-{4-[(5,5-dimethyl-2,4-dioxo-3-{4-[(trifluoromethyl)thio]phenyl}imidazolidin-1-yl)methyl]pyridin-2-yl}urea], the IC50 in assay [1] (setting [2]) is 10 to 100 nM; in assay [1] (setting [3]), 10 to 100 nM; at IGF-1R in MCF7 cells, less than 10 nM; in the assay with MEF-IGF1R cells, 10 to 100 nM.

Consider `CC1(C)C(=O)N(c2ccc(S(=O)(=O)C(F)(F)F)cc2)C(=O)N1Cc1ccnc(Nc2cncnc2)n1` [Example 16, 5,5-dimethyl-1-{[2-(pyrimidin-5-ylamino)pyrimidin-4-yl]methyl}-3-{4-[(trifluoromethyl)sulfonyl]phenyl}imidazolidine-2,4-dione], for which the IC50 in assay [1] (setting [2]) is 10 to 100 nM; in assay [1] (setting [3]), 10 to 100 nM; at IGF-1R in MCF7 cells, 10 to 100 nM; in the assay on MEF-IGF1R cells, more than 100 nM.

Take `CC1(C)C(=O)N(c2ccc(SC(F)(F)F)cc2)C(=O)N1Cc1ccnc(Nc2ccc(O)nc2)c1` [Example 40G, 1-({2-[(6-hydroxypyridin-3-yl)amino]pyridin-4-yl}-methyl)-5,5-dimethyl-3-{4-[(trifluoromethyl)thio]phenyl}imidazolidine-2,4-dione]: the IC50 is 10 to 100 nM in assay [1] (setting [2]), 10 to 100 nM in assay [1] (setting [3]), 10 to 100 nM on IGF-1R in MCF7 cells and more than 100 nM in the assay on MEF-IGF1R cells.

As for `CN1CCN(C(=O)Nc2cc(CN3C(=O)N(c4ccc(SC(F)(F)F)cc4)C(=O)C3(C)C)ccn2)CC1` [Example 30, N-{4-[(5,5-dimethyl-2,4-dioxo-3-{4-[(trifluoro-methyl)thio]phenyl}imidazolidin-1-yl)methyl]pyridin-2-yl}-4-methylpiperazine-1-carboxamide], the IC50 in assay [1] (setting [2]) is 10 to 100 nM; in assay [1] (setting [3]), less than 10 nM; on IGF-1R in MCF7 cells, 10 to 100 nM; in the assay with MEF-IGF1R cells, more than 100 nM.

As for `CC1(C)C(=O)N(c2ccc(SC(F)(F)F)cc2)C(=O)N1Cc1ccnc(Nc2cccc(F)c2)c1` [Example 40C, 1-({2-[(3-fluorophenyl)amino]pyridin-4-yl}methyl)-5,5-dimethyl-3-{4-[(trifluoromethyl)thio]phenyl}imidazolidine-2,4-dione], the IC50 in assay [1] (setting [2]) is more than 100 nM; in assay [1] (setting [3]), 10 to 100 nM; at IGF-1R in MCF7 cells, 10 to 100 nM; with MEF-IGF1R cells it was 10 to 100 nM.

With `CC1(C)C(=O)N(c2ccc(SC(F)(F)F)cc2)C(=O)N1Cc1ccnc(NC(=O)c2cc(Cl)cc(Cl)c2)c1` [Example 6, 3,5-dichloro-N-{4-[(5,5-dimethyl-2,4-dioxo-3-{4-[(trifluoromethyl)thio]phenyl}imidazolidin-1-yl)methyl]pyridin-2-yl}benzamide], the IC50 in assay [1] (setting [2]) is more than 100 nM; on IGF-1R in MCF7 cells it was more than 100 nM; in the assay with MEF-IGF1R cells, less than 10 nM.

Turning to `Cc1ccc(F)c(C(=O)Nc2cc(CN3C(=O)N(c4ccc(SC(F)(F)F)cc4)C(=O)C3(C)C)ccn2)c1Cl` [Example 7, 2-chloro-N-{4-[(5,5-dimethyl-2,4-dioxo-3-{4-[(tri-fluoromethyl)thio]phenyl}imidazolidin-1-yl)methyl]pyridin-2-yl}-6-fluoro-3-methylbenzamide], the IC50 was more than 100 nM in assay [1] (setting [2]), 10 to 100 nM in assay [1] (setting [3]), more than 100 nM at IGF-1R in MCF7 cells and 10 to 100 nM in the assay with MEF-IGF1R cells.

`COC(=O)Nc1cc(CN2C(=O)N(c3ccc(SC(F)(F)F)cc3)C(=O)C2(C)C)ccn1` [Example 40L, methyl {4-[(5,5-dimethyl-2,4-dioxo-3-{4-[(tri-fluoromethyl)thio]phenyl}imidazolidin-1-yl)methyl]pyridin-2-yl}carbamate]: the IC50 is 10 to 100 nM in assay [1] (setting [2]), less than 10 nM in assay [1] (setting [3]), 10 to 100 nM at IGF-1R in MCF7 cells and more than 100 nM in the assay with MEF-IGF1R cells.

As to `CC1(C)C(=O)N(c2ccc(SC(F)(F)F)cc2)C(=O)N1Cc1ccnc(Nc2cccnc2Cl)c1` [Example 40E, 1-({2-[(2-chloropyridin-3-yl)amino]pyridin-4-yl}-methyl)-5,5-dimethyl-3-{4-[(trifluoromethyl)thio]phenyl}imidazolidine-2,4-dione], the IC50 (in assay [1] (setting [2]); in assay [1] (setting [3]); at IGF-1R in MCF7 cells; with MEF-IGF1R cells) was 10 to 100 nM in each case.

In the case of `CC1(C)C(=O)N(c2ccc(SC(F)(F)F)cc2)C(=O)N1Cc1ccnc(NC(=O)NC2CC2)c1` [Example 22, 1-cyclopropyl-3-{4-[(5,5-dimethyl-2,4-dioxo-3-{4-[(trifluoromethyl)thio]phenyl}imidazolidin-1-yl)methyl]pyridin-2-yl}urea], the IC50 (in assay [1] (setting [2]); in assay [1] (setting [3]); at IGF-1R in MCF7 cells; in the assay with MEF-IGF1R cells) was 10 to 100 nM throughout.

For `CC1(C)C(=O)N(c2ccc(SC(F)(F)F)cc2)C(=O)N1Cc1ccnc(Nc2cncnc2)n1` [Example 15, 5,5-dimethyl-1-{[2-(pyrimidin-5-ylamino)pyrimidin-4-yl]methyl}-3-{4-[(trifluoromethyl)thio]phenyl}imidazolidine-2,4-dione], the IC50 was 10 to 100 nM in assay [1] (setting [2]), 10 to 100 nM in assay [1] (setting [3]), 10 to 100 nM at IGF-1R in MCF7 cells and more than 100 nM with MEF-IGF1R cells.

These data come from US20090082329A1 (AVENTIS PHARMA S.A., priority 2006, published 2009).
